Data reported in patent publication US11278529B2, “Methods for treating aggression associated with Alzheimer's disease” (Ovid Therapeutics Inc., priority 2014, dated 2022).

Columns and labels:
[1] = test system: GABA; conditions: cited from earlier work
[2] = test system: subjects under sleep-restriction; conditions: 15 mg, cited from earlier work
[3] = test system: GABA-uptake; conditions: cited from earlier work
[4] = test system: APP/PS1 HET mice; experiment: Resident-Intruder (RI) test of aggression; format: in vivo
Description: Behavioral aggression is a common symptom associated with Alzheimer's disease. The Resident-Intruder (RI) test is a behavioral test that can assess aggression in male mice. The two output measures are latency to attack and total number of attacks during the test. 40 Male APP/PS1 HET and 10 Male APP/PS1 WT were used as “residents”. Male C57BL/6J mice were used as intruders.
• animal age (>2 vs. >6 months for Fmr1 and APP/PS1) • housing conditions (APP/PS1 were single housed for 3 weeks ahead of testing) • lab, diet, and potentially lighting Many Other Key Variables were the Same: • route and timing of drug admin (i.p injection 30 min ahead of testing) • gender (male only) • genetic background (C57BL/6J) • 10 animals/group
Mice were screened for baseline aggression in the Resident Intruder test. Mice with attack latencies exceeding 150 seconds were excluded from the study. Mice were then balanced by latency to first attack, attack frequency, and body weight.
Gaboxadol (referred to as Test compound A) was tested at 0.5, 1, and 2 mg/kg following IP injection, 30 min pre-treat time. Mice were tested in Resident-Intruder paradigm for 5 minutes test duration.

[5] = test system: healthy subjects; conditions: cited from earlier work
[6] = test system: male Balb/Cbyj mice; experiment: Locomotor activity, male Balb/Cbyj mice; format: in vivo; conditions: male Balb/Cbyj mice, 1.25, 2.5 and 5 mg/Kg i.p. 30 min ahead of testing
Procedure: 10 male Balb/Cbyj mice were administered 0.9% NaCl, and gaboxadol: 1.25 mg/Kg, 2.5 mg/Kg and 5 mg/Kg by i.p injection 30 min ahead of testing.

[7] = test system: male C57 mice; experiment: Locomotor activity, male C57 mice; format: in vivo; conditions: male C57 mice, 1.25, 2.5 and 5 mg/Kg i.p. 30 min ahead of testing
Procedure: 10 male C57 mice were administered 0.9% NaCl, and gaboxadol: 1.25 mg/Kg, 2.5 mg/Kg and 5 mg/Kg by i.p injection 30 min ahead of testing.

[8] = test system: cerebellar granule cells; conditions: 500 nM; cited from earlier work
[9] = test system: primary insomnia subjects; conditions: cited from earlier work
[10] = test system: predisposed individuals; conditions: high peak concentrations; cited from earlier work
[11] = test system: patients with primary insomnia; conditions: cited from earlier work
[12] = cited from earlier work
[13] = test system: Fmr1 knockout mice; conditions: in vivo; cited from earlier work
[14] = test system: mouse model of Angelman syndrome; conditions: cited from earlier work
[15] = test system: healthy young and elderly individuals; conditions: in vivo; cited from earlier work

What does the source list for `Oc1noc2c1CCNC2` [gaboxadol, 4,5,6,7-tetrahydroisoxazolo(5,4-c)pyridin-3-ol]?
GABA agonist activity [1]: very potent; mean more SWS compared to placebo ([2]; over four sleep-restriction nights): 21.8 min; stage 4 sleep and SWS compared with the placebo group ([2]; p<0.001): significantly more; stage 1 sleep, REM sleep, and shifts to wake or stage 1 sleep relative to placebo [2]: small but significant reductions; activity as a GABA-uptake inhibitor [3]: inactive; heightened aggression ([4]; Alzheimer disease model): normalizes heightened aggression; attack frequency ([4]; HET mice, 0.5, 1, and 2 mg/kg IP, 30 min pre-treat): significantly attenuated; latency to first attack ([4]; HET mice, 0.5, 1, and 2 mg/kg IP, 30 min pre-treat, compared to vehicle): significantly increased; TST increase compared to placebo ([5]; all dosages (5, 10, 15 mg), p<0.001): approximately 30 minutes; WASO reduction compared to placebo ([5]; all dosages (5, 10, 15 mg), p<0.05): 17 to 20 min; subjective measures of sleep quality relative to placebo ([5]; in vivo): improved; sedation (locomotor activity, total distance traveled) [6]: not sedating; sedation (locomotor activity, total distance traveled) [7]: not sedating; excitability of cerebellar granule cells [8]: reduced; tonic holding currents [8]: increased; SWS compared with placebo ([9]; 10 mg (p<0.01) and 20 mg (p<0.001)): increase; WASO ([9]; 20 mg, p<0.01): significantly reduced; TST ([9]; 20 mg, p<0.05): significantly increased; NASO ([9]; both doses (10 and 20 mg), p<0.001): significantly reduced; adverse event [10]: hallucinations; TST ([11]; 5 mg and 15 mg, p<0.05): significantly improved; latency to persistent sleep ([11]; 15 mg, p<0.05): significantly reduced; SWS ([11]; 15 mg): enhance; stage 1, stage 2, or REM sleep ([11]; 15 mg): without significantly affecting; WASO ([11]; statistical significance only with the 5 mg dose): improved; t max ([12]; given orally, healthy subjects): 30 to 60 min; dose excreted in the urine ([12]; mostly unchanged): More than 95%; hyperactivity (travel and velocity) [13]: reduction or dampening; hypersensitivity to auditory stimuli [13]: reduction; cerebellar dysfunction in vivo (hind paw abduction) ([14]; 1.25 mg/kg and 2.5 mg/kg): effective to rescue; adverse effects (reduced time on rotarod) ([14]; 1.25 mg/kg): without adverse effects; NREM sleep, sleep continuity, delta activity within NREM sleep, SWS/SWA [15]: increase; REM sleep [15]: without suppressing
